SMILES strings stand for the structures.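 Each compound was tested at five concentrations against cells in 96-well plates for 48 hours. At the GI50, growth is halved.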 The source made the active and inactive calls. Cut-off read from the data, not from the text of the source: active = GI50 up to about 1.1 µM and inactive = higher. A value given as a limit tells only on which side of the number the result lay.

Some test systems named below: CAKI-1; HCT-116; HCT-15; HL-60; HT-29; LXFL 529; MOLT-4; Malme-3M; NCI-H226; OVCAR-3; OVCAR-5; OVCAR-8; RPMI-8226; SF-295; SW-620; U-251; UO-31; SK-OV-3.
Assay in all cases: NCI anticancer screen, dose series, 48 h

`Cc1nc2sccn2c1C(=O)NC(=O)Nc1ccc(Cl)cc1`: the GI50 was > 100 µM (inactive) in the assay with CAKI-1; 46.2 µM (inactive) in the assay on HCT-116; > 100 µM in the assay on HCT-15; > 100 µM (inactive) with HL-60; > 100 µM (inactive) with HT-29; > 100 µM (inactive) with LXFL 529. For the same molecule, the GI50 in the assay with MOLT-4 is > 100 µM (inactive); in the assay on Malme-3M, > 100 µM (inactive); with NCI-H226, 71.9 µM (inactive); in the assay with OVCAR-3 it was 60.3 µM (inactive); in the assay on OVCAR-5, > 100 µM (inactive); with OVCAR-8, > 100 µM (inactive). For the same molecule, the GI50 was > 100 µM (inactive) in the assay on RPMI-8226; 70.8 µM (inactive) with SF-295; > 100 µM (inactive) with SW-620; 50.5 µM (inactive) with U-251; 59.2 µM (inactive) with UO-31.
As to `CN(CN1C(=O)C2Cc3ccccc3CN2C1=O)c1ccccn1` (configuration not stated), the GI50 with CAKI-1 is > 100 µM (inactive); with HCT-15, > 100 µM; in the assay with HL-60, > 100 µM (inactive); in the assay on LXFL 529, > 100 µM (inactive); in the assay on MOLT-4 it was > 100 µM (inactive); in the assay with Malme-3M it was > 100 µM (inactive). For the same molecule, the GI50 in the assay with NCI-H226, in the assay with OVCAR-3, in the assay with OVCAR-5, with OVCAR-8, in the assay with RPMI-8226 and in the assay with SF-295 was > 100 µM (inactive) throughout. Also, the GI50 with SW-620, with U-251 and with UO-31 was > 100 µM (inactive) throughout.
For `CCOC(=N)CC(=O)NC(C)c1ccccc1` (configuration not stated), the GI50 in the assay with CAKI-1 is > 100 µM (inactive); with HCT-116 it was > 100 µM (inactive); in the assay on HCT-15, > 100 µM; with HL-60, > 100 µM (inactive); in the assay with HT-29, > 100 µM (inactive); with LXFL 529, > 100 µM (inactive). For the same molecule, the GI50 in the assay on MOLT-4, in the assay with Malme-3M, in the assay on NCI-H226, with OVCAR-3, with OVCAR-5 and with OVCAR-8 was > 100 µM (inactive) each time. Moreover, the GI50 with SF-295, with SK-OV-3, in the assay with SW-620, with U-251 and in the assay with UO-31 was > 100 µM (inactive) in each case.
Turning to `O=CC1=CCCC2(C1)OCCO2`, the GI50 in the assay on CAKI-1 was > 100 µM (inactive); with HCT-116, > 100 µM (inactive); with HCT-15, > 100 µM; with HL-60, > 100 µM (inactive); in the assay on HT-29 it was > 100 µM (inactive); in the assay with LXFL 529, > 100 µM (inactive). Besides, the GI50 with Malme-3M, with OVCAR-3, in the assay on OVCAR-8, with RPMI-8226, in the assay with SF-295 and in the assay on SK-OV-3 was > 100 µM (inactive) in each case. In addition, the GI50 in the assay with SW-620, with U-251 and with UO-31 was > 100 µM (inactive) throughout.
In the case of `CCOC(=N)CC(=O)Nc1cccc(Cl)c1`, the GI50 in the assay with CAKI-1, with HCT-116, with HL-60, in the assay with HT-29, with LXFL 529 and in the assay with MOLT-4 was > 100 µM (inactive) each time. Further, the GI50 in the assay with Malme-3M was 31.7 µM (inactive); in the assay on NCI-H226, > 100 µM (inactive); in the assay on OVCAR-3, > 100 µM (inactive); in the assay on OVCAR-5, > 100 µM (inactive); in the assay on OVCAR-8, > 100 µM (inactive); in the assay on SF-295 it was > 100 µM (inactive). Moreover, the GI50 with SK-OV-3, with SW-620, in the assay on U-251 and in the assay on UO-31 was > 100 µM (inactive) each time.
`COc1ccccc1NC(=O)CC(=O)N1N=C(c2ccccc2)C(/N=N/c2ccc(Cl)cc2)C1=O` (configuration not stated): the GI50 with CAKI-1 is 19.5 µM (inactive); with HCT-116, 30.1 µM (inactive); in the assay with HCT-15, 58.6 µM; in the assay with HL-60, 52 µM (inactive); in the assay on HT-29, 42.7 µM (inactive); in the assay with LXFL 529 it was 47.6 µM (inactive). Further, the GI50 with MOLT-4 was 41.1 µM (inactive); in the assay on NCI-H226 it was 27.5 µM (inactive); in the assay with OVCAR-3 it was 28.4 µM (inactive); in the assay on OVCAR-5, > 100 µM (inactive); in the assay with OVCAR-8, 41.8 µM (inactive); in the assay on RPMI-8226, > 100 µM (inactive). Moreover, the GI50 is 30.5 µM (inactive) with SF-295; 21.9 µM (inactive) in the assay with SK-OV-3; 45.6 µM (inactive) with SW-620; 30.9 µM (inactive) in the assay on U-251; 18.2 µM (inactive) with UO-31.
For the molecule `Nc1c2ccccc2nc2c(C(=O)Nc3ccc(S(N)(=O)=O)cc3)cccc12`, the GI50 in the assay on CAKI-1 is > 100 µM (inactive); in the assay on HCT-116 it was 67.5 µM (inactive); with HCT-15, > 100 µM; in the assay on HT-29, > 100 µM (inactive); with LXFL 529 it was 45.2 µM (inactive); in the assay on MOLT-4, 11.1 µM (inactive). Further, the GI50 is 74 µM (inactive) in the assay with Malme-3M; 84.3 µM (inactive) in the assay with NCI-H226; 33.7 µM (inactive) in the assay with OVCAR-3; > 100 µM (inactive) with OVCAR-5; 57.9 µM (inactive) in the assay on OVCAR-8; 33.1 µM (inactive) in the assay on RPMI-8226. The GI50 was > 100 µM (inactive) in the assay with SF-295; > 100 µM (inactive) in the assay on SK-OV-3; 66.2 µM (inactive) with SW-620; 49 µM (inactive) in the assay on U-251; 46.3 µM (inactive) in the assay with UO-31.
For `CC1=C(C(=O)Nc2ccccc2C)C(c2ccccc2)C(C(=O)Nc2ccccc2C)=C(C)N1`, the GI50 is 24.9 µM (inactive) in the assay with CAKI-1; 24.3 µM (inactive) in the assay with HCT-116; 40.6 µM in the assay with HCT-15; 15.2 µM (inactive) with HL-60; 34.7 µM (inactive) with HT-29; 30.5 µM (inactive) with LXFL 529. Besides, the GI50 in the assay on MOLT-4 is 9.95 µM (inactive); in the assay with Malme-3M it was 35.1 µM (inactive); with NCI-H226, > 100 µM (inactive); with OVCAR-3, 31.8 µM (inactive); in the assay with OVCAR-5 it was > 100 µM (inactive); in the assay on OVCAR-8 it was 52 µM (inactive). The GI50 in the assay on SF-295 was 36.5 µM (inactive); in the assay with SK-OV-3, > 100 µM (inactive); with SW-620, 30.5 µM (inactive); with U-251, 37.2 µM (inactive); in the assay with UO-31, 35.2 µM (inactive).
As for `COC(=O)[C@]12CCC(C)[C@H](C)[C@H]1C1=CCC3[C@@]4(C)CC[C@H](OC(C)=O)C(C)(C)C4CC[C@@]3(C)C1(C)C(O)C2` (some centres not stated), the GI50 is > 100 µM (inactive) in the assay with CAKI-1; 54.2 µM (inactive) with HCT-116; > 100 µM (inactive) in the assay with HT-29; 77.3 µM (inactive) with LXFL 529; 86.5 µM (inactive) with MOLT-4; > 100 µM (inactive) in the assay with Malme-3M. The GI50 in the assay on NCI-H226 was 27.1 µM (inactive); with OVCAR-3 it was > 100 µM (inactive); in the assay on OVCAR-5, > 100 µM (inactive); in the assay with OVCAR-8, > 100 µM (inactive); with RPMI-8226, 53.7 µM (inactive); with SF-295, > 100 µM (inactive). For the same molecule, the GI50 with SK-OV-3, in the assay on SW-620, with U-251 and with UO-31 was > 100 µM (inactive) throughout.

The record behind these values is ChEMBL document CHEMBL1201862, “PubChem BioAssay data set” (2004).
